Measurements from patent US11000033B2, “Ketone or oxime compound, and herbicide” (NISSAN CHEMICAL CORPORATION, priority 2014, dated 2021).

Key:
Format in all cases: in vivo
Amaranthus retroflexus [1] = assay: Test Example 5: herbicidal effect by foliage application, plastic box (symbol N); details: 320 g/ha, 3 weeks after application
Summary of the method: (§1)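 Sowing in sterilized diluvial soil, 14 days' greenhouse growth at 25° C. to 30° C., then uniform small-sprayer foliar application of aqueous emulsion dilution; plants scored three weeks afterwards.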

Alopecurus myosuroides = assay: Test Example 5: herbicidal effect by foliage application, plastic box (symbol J); details: 320 g/ha, 3 weeks after application
Summary of the method: as §1

Scirpus juncoides [2] = assay: Test Example 2: herbicidal activity, application during weed generation in submerged conditions (symbol B); details: Table 23; application herbicide amount 320 g/ha; grade 0-5 by criteria of Test Example 1
Summary of the method: (§2)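 Compound was applied as a water-diluted emulsion into the standing water of flooded pots (4 cm) once co-sown weeds reached one to two leaves. Greenhouse temperature was 25° C. to 30° C., soil was alluvial, and each species was rated visually after 3 weeks.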

[3] = test system: Echinochloa oryzacola Vasing.; assay: Test Example 2: herbicidal activity, application during weed generation in submerged conditions (symbol A); details: Table 23; application herbicide amount 320 g/ha; grade 0-5 by criteria of Test Example 1
Summary of the method: as §2

Setaria viridis = assay: Test Example 4: herbicidal effect by soil treatment (symbol G); details: application herbicide amount 320 g/ha
Summary of the method: (§3)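 Seeds were sown in sterilized diluvial soil, covered with about 1.5 cm of soil, and the soil surface was sprayed with a water-diluted emulsion of the compound at a predetermined rate. Plants grew in a greenhouse at 25° C. to 30° C.; effects were scored visually 3 weeks after application.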

Cyperus difformis = assay: Test Example 3: herbicidal effect by foliage application, Wagner pot (symbol E); details: application herbicide amount 320 g/ha; for E herbicidal effect grade: Table 24
Summary of the method: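 In a shallow-flooded alluvial soil system held at 25–30 °C, plants including rice grew for 14 days and were then sprayed over the foliage with emulsion diluted to a fixed herbicide amount. Visual rating followed at 3 weeks.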

wheat = assay: Test Example 4: effect on crop by soil treatment (symbol e); details: application herbicide amount 320 g/ha
Summary of the method: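 Seeds were sown in spots on sterilized diluvial soil in a plastic box and covered with about 1.5 cm of soil. Plants were then grown in a greenhouse at 25° C. to 30° C.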

Apera spica-venti = assay: Test Example 4: herbicidal effect by soil treatment (symbol L); details: application herbicide amount 320 g/ha
Summary of the method: as §3

Amaranthus retroflexus [4] = assay: Test Example 4: herbicidal effect by soil treatment (symbol N); details: application herbicide amount 320 g/ha
Summary of the method: as §3

Scirpus juncoides [5] = assay: Test Example 1: herbicidal activity, application before weed generation in submerged conditions (symbol B); details: application herbicide amount 320 g/ha
Summary of the method: (§4)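 Weeds are sown into submerged alluvial soil alongside transplanted 2.5-leaf rice, and the compound, as an emulsion diluted to a set rate, is applied onto the water before emergence. Rating on the 0–5 herbicidal-ratio scale follows 3 weeks of greenhouse growth at 25–30 °C.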

transplanted rice plant = assay: Test Example 1: effect on crop, application before weed generation in submerged conditions (symbol a); details: application herbicide amount 320 g/ha
Summary of the method: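 Alluvial soil pots flooded to 4 cm water, sown with Echinochloa oryzacola, Scirpus juncoides and Monochoria vaginalis, then transplanted with 2.5 leaf stage rice seedlings; pre-emergence application. Greenhouse 25° C. to 30° C.; scored 0–5 by herbicidal ratio 3 weeks after application.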

[6] = test system: Echinochloa crus-galli var. crus-galli; assay: Test Example 5: herbicidal effect by foliage application, plastic box (symbol H); details: 320 g/ha, 3 weeks after application
Summary of the method: as §1

[7] = test system: Echinochloa oryzacola Vasing.; assay: Test Example 1: herbicidal activity, application before weed generation in submerged conditions (symbol A); details: application herbicide amount 320 g/ha
Summary of the method: as §4

SMILES: COc1cc(Br)cc(C)c1C1=C(O)CC(CC(=O)C2CC2)C1=O (racemic) [14-001]
- N: Amaranthus retroflexus, herbicidal effect grade (Amaranthus retroflexus [1]): 0 (Herbicidal ratio of 5% or lower (almost no effect))
- J: Alopecurus myosuroides, herbicidal effect grade (Alopecurus myosuroides): 5 (Herbicidal ratio of 90% or more (almost completely withered))
- Herbicidal effect grade, B: Scirpus juncoides (Scirpus juncoides [2]): 0 (Herbicidal ratio of 5% or lower (almost no effect))
- Herbicidal effect grade, A: Echinochloa oryzacola Vasing. [3]: 5 (Herbicidal ratio of 90% or more (almost completely withered))
- G: Setaria viridis, herbicidal effect grade (Setaria viridis): 5 (Herbicidal ratio of 90% or more (almost completely withered))
- E herbicidal effect grade (Cyperus difformis): 5 (Herbicidal ratio of 90% or more (almost completely withered))
- e: wheat, effect on crop grade (wheat): 0 (Herbicidal ratio of 5% or lower (almost no effect))
- L: Apera spica-venti, herbicidal effect grade (Apera spica-venti): 5 (Herbicidal ratio of 90% or more (almost completely withered))
- N: Amaranthus retroflexus, herbicidal effect grade (Amaranthus retroflexus [4]): 0 (Herbicidal ratio of 5% or lower (almost no effect))
- B (Scirpus juncoides) herbicidal effect grade (Scirpus juncoides [5]): 3 (Herbicidal ratio of 40% or higher and lower than 70%)
- a (transplanted rice plant) effect on crop grade (transplanted rice plant): 5 (Herbicidal ratio of 90% or more (almost completely withered))
- H: Echinochloa crus-galli var. crus-galli, herbicidal effect grade [6]: 5 (Herbicidal ratio of 90% or more (almost completely withered))
- A (Echinochloa oryzacola Vasing.) herbicidal effect grade [7]: 4 (Herbicidal ratio of 70% or higher and lower than 90%)

SMILES: CCC(=O)CC1CC(O)=C(c2c(C)cc(Br)cc2OC)C1=O (racemic) [14-002]
- N: Amaranthus retroflexus, herbicidal effect grade (Amaranthus retroflexus [1]): 0 (Herbicidal ratio of 5% or lower (almost no effect))
- J: Alopecurus myosuroides, herbicidal effect grade (Alopecurus myosuroides): 5 (Herbicidal ratio of 90% or more (almost completely withered))
- Herbicidal effect grade, B: Scirpus juncoides (Scirpus juncoides [2]): 0 (Herbicidal ratio of 5% or lower (almost no effect))
- Herbicidal effect grade, A: Echinochloa oryzacola Vasing. [3]: 5 (Herbicidal ratio of 90% or more (almost completely withered))
- G: Setaria viridis, herbicidal effect grade (Setaria viridis): 5 (Herbicidal ratio of 90% or more (almost completely withered))
- E herbicidal effect grade (Cyperus difformis): 5 (Herbicidal ratio of 90% or more (almost completely withered))
- e: wheat, effect on crop grade (wheat): 3 (Herbicidal ratio of 40% or higher and lower than 70%)
- L: Apera spica-venti, herbicidal effect grade (Apera spica-venti): 5 (Herbicidal ratio of 90% or more (almost completely withered))
- N: Amaranthus retroflexus, herbicidal effect grade (Amaranthus retroflexus [4]): 0 (Herbicidal ratio of 5% or lower (almost no effect))
- B (Scirpus juncoides) herbicidal effect grade (Scirpus juncoides [5]): 1 (Herbicidal ratio of 5% or higher and lower than 20%)
- a (transplanted rice plant) effect on crop grade (transplanted rice plant): 2 (Herbicidal ratio of 20% or higher and lower than 40%)
- H: Echinochloa crus-galli var. crus-galli, herbicidal effect grade [6]: 5 (Herbicidal ratio of 90% or more (almost completely withered))
- A (Echinochloa oryzacola Vasing.) herbicidal effect grade [7]: 4 (Herbicidal ratio of 70% or higher and lower than 90%)

SMILES: CON=C(C)CC1CC(OC(=O)C(C)(C)C)=C(c2c(C)cc(C)cc2C)C1=O (stereo not drawn) [1-004, 2-mesityl-4-{2-(methoxyimino)propyl}-3-oxocyclopent-1-en-1-yl pivalate]
- N: Amaranthus retroflexus, herbicidal effect grade (Amaranthus retroflexus [1]): 4 (Herbicidal ratio of 70% or higher and lower than 90%)
- J: Alopecurus myosuroides, herbicidal effect grade (Alopecurus myosuroides): 5 (Herbicidal ratio of 90% or more (almost completely withered))
- Herbicidal effect grade, B: Scirpus juncoides (Scirpus juncoides [2]): 4 (Herbicidal ratio of 70% or higher and lower than 90%)
- Herbicidal effect grade, A: Echinochloa oryzacola Vasing. [3]: 5 (Herbicidal ratio of 90% or more (almost completely withered))
- G (Setaria viridis) herbicidal effect grade (Setaria viridis): 5 (Herbicidal ratio of 90% or more (almost completely withered))
- herbicidal effect on E, grade 0-5 (Cyperus difformis): 5 (Herbicidal ratio of 90% or more (almost completely withered))
- e (wheat) effect on crop grade (wheat): 3 (Herbicidal ratio of 40% or higher and lower than 70%)
- L (Apera spica-venti) herbicidal effect grade (Apera spica-venti): 5 (Herbicidal ratio of 90% or more (almost completely withered))
- N (Amaranthus retroflexus) herbicidal effect grade (Amaranthus retroflexus [4]): 5 (Herbicidal ratio of 90% or more (almost completely withered))
- Herbicidal effect grade, B: Scirpus juncoides (Scirpus juncoides [5]): 5 (Herbicidal ratio of 90% or more (almost completely withered))
- Effect grade on crop, a: transplanted rice plant (transplanted rice plant): 5 (Herbicidal ratio of 90% or more (almost completely withered))
- H: Echinochloa crus-galli var. crus-galli, herbicidal effect grade [6]: 5 (Herbicidal ratio of 90% or more (almost completely withered))
- Herbicidal effect grade, A: Echinochloa oryzacola Vasing. [7]: 5 (Herbicidal ratio of 90% or more (almost completely withered))

SMILES: CON=C(C)CC1CC(OC(C)=O)=C(c2c(C)cc(C)cc2C)C1=O (stereo not drawn) [1-005]
- N: Amaranthus retroflexus, herbicidal effect grade (Amaranthus retroflexus [1]): 4 (Herbicidal ratio of 70% or higher and lower than 90%)
- J: Alopecurus myosuroides, herbicidal effect grade (Alopecurus myosuroides): 5 (Herbicidal ratio of 90% or more (almost completely withered))
- Herbicidal effect grade, B: Scirpus juncoides (Scirpus juncoides [2]): 4 (Herbicidal ratio of 70% or higher and lower than 90%)
- Herbicidal effect grade, A: Echinochloa oryzacola Vasing. [3]: 5 (Herbicidal ratio of 90% or more (almost completely withered))
- G (Setaria viridis) herbicidal effect grade (Setaria viridis): 3 (Herbicidal ratio of 40% or higher and lower than 70%)
- herbicidal effect on E, grade 0-5 (Cyperus difformis): 5 (Herbicidal ratio of 90% or more (almost completely withered))
- e (wheat) effect on crop grade (wheat): 4 (Herbicidal ratio of 70% or higher and lower than 90%)
- L (Apera spica-venti) herbicidal effect grade (Apera spica-venti): 5 (Herbicidal ratio of 90% or more (almost completely withered))
- N (Amaranthus retroflexus) herbicidal effect grade (Amaranthus retroflexus [4]): 5 (Herbicidal ratio of 90% or more (almost completely withered))
- Herbicidal effect grade, B: Scirpus juncoides (Scirpus juncoides [5]): 5 (Herbicidal ratio of 90% or more (almost completely withered))
- Effect grade on crop, a: transplanted rice plant (transplanted rice plant): 5 (Herbicidal ratio of 90% or more (almost completely withered))
- H: Echinochloa crus-galli var. crus-galli, herbicidal effect grade [6]: 5 (Herbicidal ratio of 90% or more (almost completely withered))
- Herbicidal effect grade, A: Echinochloa oryzacola Vasing. [7]: 5 (Herbicidal ratio of 90% or more (almost completely withered))

SMILES: CON=C(C)CC1CC(OS(C)(=O)=O)=C(c2c(C)cc(C)cc2C)C1=O (stereo not drawn) [1-006]
- N: Amaranthus retroflexus, herbicidal effect grade (Amaranthus retroflexus [1]): 3 (Herbicidal ratio of 40% or higher and lower than 70%)
- J: Alopecurus myosuroides, herbicidal effect grade (Alopecurus myosuroides): 5 (Herbicidal ratio of 90% or more (almost completely withered))
- Herbicidal effect grade, B: Scirpus juncoides (Scirpus juncoides [2]): 3 (Herbicidal ratio of 40% or higher and lower than 70%)
- Herbicidal effect grade, A: Echinochloa oryzacola Vasing. [3]: 5 (Herbicidal ratio of 90% or more (almost completely withered))
- G (Setaria viridis) herbicidal effect grade (Setaria viridis): 4 (Herbicidal ratio of 70% or higher and lower than 90%)
- herbicidal effect on E, grade 0-5 (Cyperus difformis): 5 (Herbicidal ratio of 90% or more (almost completely withered))
- e (wheat) effect on crop grade (wheat): 0 (Herbicidal ratio of 5% or lower (almost no effect))
- L (Apera spica-venti) herbicidal effect grade (Apera spica-venti): 5 (Herbicidal ratio of 90% or more (almost completely withered))
- N (Amaranthus retroflexus) herbicidal effect grade (Amaranthus retroflexus [4]): 4 (Herbicidal ratio of 70% or higher and lower than 90%)
- Herbicidal effect grade, B: Scirpus juncoides (Scirpus juncoides [5]): 3 (Herbicidal ratio of 40% or higher and lower than 70%)
- Effect grade on crop, a: transplanted rice plant (transplanted rice plant): 4 (Herbicidal ratio of 70% or higher and lower than 90%)
- H: Echinochloa crus-galli var. crus-galli, herbicidal effect grade [6]: 5 (Herbicidal ratio of 90% or more (almost completely withered))
- Herbicidal effect grade, A: Echinochloa oryzacola Vasing. [7]: 5 (Herbicidal ratio of 90% or more (almost completely withered))

SMILES: C=CCOC1=C(c2c(C)cc(C)cc2C)C(=O)C(CC(C)=NOC)C1 (stereo not drawn) [1-007]
- N: Amaranthus retroflexus, herbicidal effect grade (Amaranthus retroflexus [1]): 0 (Herbicidal ratio of 5% or lower (almost no effect))
- J: Alopecurus myosuroides, herbicidal effect grade (Alopecurus myosuroides): 3 (Herbicidal ratio of 40% or higher and lower than 70%)
- Herbicidal effect grade, B: Scirpus juncoides (Scirpus juncoides [2]): 0 (Herbicidal ratio of 5% or lower (almost no effect))
- Herbicidal effect grade, A: Echinochloa oryzacola Vasing. [3]: 0 (Herbicidal ratio of 5% or lower (almost no effect))
- G (Setaria viridis) herbicidal effect grade (Setaria viridis): 0 (Herbicidal ratio of 5% or lower (almost no effect))
- herbicidal effect on E, grade 0-5 (Cyperus difformis): 0 (Herbicidal ratio of 5% or lower (almost no effect))
- e (wheat) effect on crop grade (wheat): 0 (Herbicidal ratio of 5% or lower (almost no effect))
- L (Apera spica-venti) herbicidal effect grade (Apera spica-venti): 3 (Herbicidal ratio of 40% or higher and lower than 70%)
- N (Amaranthus retroflexus) herbicidal effect grade (Amaranthus retroflexus [4]): 0 (Herbicidal ratio of 5% or lower (almost no effect))
- Herbicidal effect grade, B: Scirpus juncoides (Scirpus juncoides [5]): 0 (Herbicidal ratio of 5% or lower (almost no effect))
- Effect grade on crop, a: transplanted rice plant (transplanted rice plant): 0 (Herbicidal ratio of 5% or lower (almost no effect))
- H: Echinochloa crus-galli var. crus-galli, herbicidal effect grade [6]: 0 (Herbicidal ratio of 5% or lower (almost no effect))
- Herbicidal effect grade, A: Echinochloa oryzacola Vasing. [7]: 0 (Herbicidal ratio of 5% or lower (almost no effect))
